Series [1] can be described thus: MTS staining for PBMC viability to measure cytotoxicity. It counts as cell-based, human. Particulars: human, PHA-stimulated pooled PBMCs, HIV-infected, infected PBMCs, six days, MTS, unit printed only with high-test concentration, read-out: TC50 (50% cytotoxicity). On the procedure:
(§1) Pooling (mixing) of mononuclear cells from more than one donor was used to minimize the variability observed between individual donors, which results from quantitative and qualitative differences in HIV infection and overall response to the PHA and IL-2 of primary lymphocyte populations. Each plate contains virus/cell control wells (cells plus virus) and experimental wells (drug plus cells plus virus). In this in vitro assay, PBMC viability remains high throughout the duration of the incubation period. Therefore, infected wells are used in the assessment of both antiviral activity and cytotoxicity. […] The PBMC cultures were maintained for six days following infection at 37° C., 5% CO2. After this period, cell-free supernatant samples were collected for analysis of reverse transcriptase activity. Following removal of supernatant samples, compound cytotoxicity was measured by addition of MTS to the plates for determination of cell viability. Wells were also examined microscopically and any abnormalities were noted. At assay termination, the assay plates were stained with the soluble tetrazolium-based dye MTS (CellTiter®96 Reagent, Promega) to determine cell viability and quantify compound toxicity. MTS is metabolized by the mitochondrial enzymes of metabolically active cells to yield a soluble formazan product, allowing the rapid quantitative analysis of cell viability and compound cytotoxicity. […] At termination of the assay, 10-25 μL of MTS reagent was added per well (10% final concentration based on volume) and the microtiter plates were then incubated for 4-6 hrs at 37° C., 5% CO2 to assess cell viability. Adhesive plate sealers were used in place of the lids, the sealed plate was inverted several times to mix the soluble formazan product and the plate was read spectrophotometrically at 490/650 nm with a Molecular Devices Vmax or SpectraMax Plus plate reader. […]

Series [2] has as its system HIV-1JR-CSF.
The test system of series [3] is HIV-1JR-CSF. Kind of series: Anti HIV efficacy evaluation in fresh human PBMCs (reverse transcriptase activity). Particulars: for IC50: Human immunodeficiency virus 1, PBMC, in Homo sapiens, 144 h, read-out: IC50 (50% inhibition of virus replication).
Series [4] deals with human PBMCs. Kind of series: MTS staining for PBMC viability to measure cytotoxicity. The series is classed as cell-based. Particulars: fixed concentration (10 ng/mL) of TNF-α versus birinapant alone; within expected biological variability. As to the method: as §1
For series [5], the system named is HBV. Kind of series: Treatment of HBV infected mice (serum HBV DNA). The series is classed as in vivo, hepatitis B virus.
Series [6] relates to HIV-infected (GFP+) cultured CD4+ lymphocytes. Kind of series: FACS of living (Active-Caspase 3 negative) HIV NL4.3 infected CD4+ lymphocytes. Particulars: single dose of 10 uM, within 24 hours. It counts as cell-based, human.
The subject of series [7] is Mycobacterium tuberculosis (strain H37Rv). Kind of series: Mycobacterium tuberculosis infected mice, lung bacterial burden. It counts as in vivo.
Series [8] relates to primary human hepatocytes infected with HBV. Kind of series: Viability (CellTiter-Glo) of primary human hepatocytes infected in vitro with HBV. It counts as cell-based. Particulars: forty eight hours after treatment, in the absence of TNF-α. An excerpt: Primary human hepatocytes were infected in vitro with HBV using an adenoviral delivery system as previously described (Chin R, Earnest-Silveira L, Koeberlein B, Franz S, Zentgraf H, Bowden S, Bock C-T, Torresi J. Modulation of MAPK pathways and cell cycle byreplicating hepatitis B virus: factors contributing tohepatocarcinogenesis. J Hepatology 2007;47:325-37). The delivery system included a green fluorescent protein marker so that the proportion of infected cells could be quantified. Using this system approximately 100% of hepatocytes were infected with HBV. Cells were rested for 2 days after infection and then they were treated with the indicated agents. Forty eight hours after treatment cell viability was assessed using CellTiter-Glo® (Promega, Madison Wis. USA) according to the manufacturer's protocol. This experiment was performed in triplicate and repeated 2 times using 2 independent donors. The highest CellTiter-Glo result from one of the triplicate untreated samples was used to set the 100% viability mark.
For orientation: ATP-based viability assays read luminescence as a measure of living cells.

Series [9] is described as follows: Toxicity of treatment in HBV-infected mice. The series is classed as in vivo. On the procedure: C57BL/6 mice were infected with HBV and 6 days after infection were treated with weekly doses of birinapnat (30 mg/kg administered intraperitoneally) or vehicle control (DMSO) for a total of 3 weeks (3 doses).

Where two headings read alike, the source gives them in different places. Bounds are passed on as bounds.

By IC50 is commonly meant the concentration at which inhibition is half-maximal. With `Cc1cn([C@H]2C[C@H](N=[N+]=[N-])[C@@H](CO)O2)c(=O)[nH]c1=O` [AZT, Zidovudine], the CC50 at 6 days in [1] (high-test concentration 1,000 nM) was > 1000 nM. For the same compound, in series [2], the “Antiviral Index (TC50/IC50)” value is >584. The half-inhibitory concentration (IC50) in series [3] was determined as 1.71 nM.

For TNF-α, the “reduction in HIV replication” value in [3] (TNF-α alone, 10 ng/mL) is reported as 35%.

On to `CC[C@H](NC(=O)[C@H](C)NC)C(=O)N1C[C@@H](O)C[C@H]1Cc1c(-c2[nH]c3cc(F)ccc3c2C[C@@H]2C[C@H](O)CN2C(=O)[C@H](CC)NC(=O)[C@H](C)NC)[nH]c2cc(F)ccc12` [Birinapant, birinapant], for which the CC50 at 6 days in series [1] (high-test concentration 10 μM) was determined as 6470 nM. Moreover, in [4], the “increase in cytotoxicity in the presence of TNF-α” value came to 1.6 fold. Besides, the “reduction of HBV viral load compared to vehicle control” value in series [5] (C57BL/6 mice, 30 mg/kg intraperitoneally weekly, after three doses) turned out to be 2 logs. Besides, the “HBV DNA in serum” value in series [5] (C57BL/6 mice, 39 days after the first dose, all treated mice) is listed as “no detectable HBV DNA”. Also, in [5] (HBV infected mice injected intraperitoneally with TNF-α antagonizing antibodies), the “efficacy against HBV when TNF-α is antagonized” value was “abrogates the efficacy”. In addition, the “HIV infected cells that die” value in [6] was 55%. Moreover, the “reduction in bacterial burden versus DMSO control” value in series [7] (mice, intraperitoneal, 30 μg/g weekly x3, started 4 weeks after infection, p=0.012) was found to be 0.33 Log10 CFU/lung. Further, the “macroscopic appearance of the lungs” value in series [7] (upon dissection after three weekly doses) was “pink, uniform and healthier in appearance”. Further, in [8], the “death of primary human hepatocytes infected with HBV” value was “not effective”. The “toxicity related to treatment” value in [9] was “No toxicity”. The half-maximal inhibitory concentration (IC50) in series [3] was 250 nM. Moreover, the “increase in antiviral potency in the presence of TNF-α” value in [3] (fixed concentration (10 ng/mL) of TNF-α versus birinapant alone) is given as 6 fold.

As for “TRAIL: TNF-related apoptosis inducing ligand”, the “death of primary human hepatocytes infected with HBV” value in series [8] is given as “virtually no efficacy”.

For the origin of these results see patent publication US20160143995A1, “Method of Treating Intracellular Infection” (priority 2013, published 2016).
